{"source": "BindingDB's records for PubMed 3012067", "about": "(Johns Hopkins University, 1986)", "note": "Several values for one entry are separate records, joined by “and”; a condition that tells them apart may be missing. Identical values can stand only once.", "data": [{"target": "Voltage-dependent L-type calcium channel subunit alpha-1C (Rattus norvegicus, UniProt P22002)", "sequence (P22002 whole entry)": "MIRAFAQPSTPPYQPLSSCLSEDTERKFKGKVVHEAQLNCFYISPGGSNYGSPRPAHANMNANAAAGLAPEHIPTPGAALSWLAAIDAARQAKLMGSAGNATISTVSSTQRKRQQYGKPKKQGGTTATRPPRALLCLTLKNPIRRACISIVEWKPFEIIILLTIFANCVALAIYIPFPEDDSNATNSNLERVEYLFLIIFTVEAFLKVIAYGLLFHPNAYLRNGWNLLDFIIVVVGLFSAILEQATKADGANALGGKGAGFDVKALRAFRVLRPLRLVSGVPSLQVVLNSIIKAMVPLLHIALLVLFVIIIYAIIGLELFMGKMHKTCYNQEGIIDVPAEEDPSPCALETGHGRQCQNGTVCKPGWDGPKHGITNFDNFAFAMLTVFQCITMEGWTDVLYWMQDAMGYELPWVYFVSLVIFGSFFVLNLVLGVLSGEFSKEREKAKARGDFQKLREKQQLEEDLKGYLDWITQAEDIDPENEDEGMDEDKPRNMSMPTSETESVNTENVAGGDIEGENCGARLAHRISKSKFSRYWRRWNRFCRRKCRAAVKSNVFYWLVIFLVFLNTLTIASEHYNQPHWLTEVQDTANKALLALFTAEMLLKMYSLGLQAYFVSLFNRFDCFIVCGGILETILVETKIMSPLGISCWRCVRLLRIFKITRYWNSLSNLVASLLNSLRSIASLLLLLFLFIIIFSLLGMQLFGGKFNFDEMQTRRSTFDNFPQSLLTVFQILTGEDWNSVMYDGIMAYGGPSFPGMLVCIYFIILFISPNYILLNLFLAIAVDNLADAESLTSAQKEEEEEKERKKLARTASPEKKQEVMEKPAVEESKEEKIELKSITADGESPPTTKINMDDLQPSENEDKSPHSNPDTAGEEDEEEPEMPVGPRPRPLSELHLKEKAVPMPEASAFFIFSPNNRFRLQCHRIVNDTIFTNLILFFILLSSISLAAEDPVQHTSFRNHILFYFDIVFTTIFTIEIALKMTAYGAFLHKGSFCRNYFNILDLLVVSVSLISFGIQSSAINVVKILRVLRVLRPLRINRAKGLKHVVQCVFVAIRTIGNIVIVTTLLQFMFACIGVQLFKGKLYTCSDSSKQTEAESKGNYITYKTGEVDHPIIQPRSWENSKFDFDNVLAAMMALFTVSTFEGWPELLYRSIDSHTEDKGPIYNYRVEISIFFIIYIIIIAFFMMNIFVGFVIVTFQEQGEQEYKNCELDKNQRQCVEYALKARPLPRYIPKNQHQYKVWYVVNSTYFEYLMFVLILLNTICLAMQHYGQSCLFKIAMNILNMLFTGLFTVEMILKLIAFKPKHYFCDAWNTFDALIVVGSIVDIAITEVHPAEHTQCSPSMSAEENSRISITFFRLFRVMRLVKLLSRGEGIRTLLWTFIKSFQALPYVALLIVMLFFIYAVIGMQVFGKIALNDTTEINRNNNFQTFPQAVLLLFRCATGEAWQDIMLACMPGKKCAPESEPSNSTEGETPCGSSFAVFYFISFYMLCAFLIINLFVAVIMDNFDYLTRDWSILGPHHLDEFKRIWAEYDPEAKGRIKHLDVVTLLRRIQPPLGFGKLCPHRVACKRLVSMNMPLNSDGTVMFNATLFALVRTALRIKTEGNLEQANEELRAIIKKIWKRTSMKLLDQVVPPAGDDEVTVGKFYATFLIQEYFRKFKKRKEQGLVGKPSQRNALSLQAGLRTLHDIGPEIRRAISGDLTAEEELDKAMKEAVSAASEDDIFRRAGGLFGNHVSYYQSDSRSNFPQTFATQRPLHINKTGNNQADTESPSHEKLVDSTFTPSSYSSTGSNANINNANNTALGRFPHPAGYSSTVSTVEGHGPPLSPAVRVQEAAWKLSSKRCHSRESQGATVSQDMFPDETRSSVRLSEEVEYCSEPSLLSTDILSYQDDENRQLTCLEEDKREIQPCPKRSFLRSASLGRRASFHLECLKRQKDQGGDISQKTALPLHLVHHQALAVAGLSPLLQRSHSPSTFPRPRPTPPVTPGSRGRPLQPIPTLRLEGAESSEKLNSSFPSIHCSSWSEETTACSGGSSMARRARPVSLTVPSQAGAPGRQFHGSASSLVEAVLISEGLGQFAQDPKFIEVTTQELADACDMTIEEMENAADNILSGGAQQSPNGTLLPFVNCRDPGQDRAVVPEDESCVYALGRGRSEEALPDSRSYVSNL", "values": [{"molecule": "COc1ccc(CCN(C)CCCC2(c3ccc(OC)c(OC)c3)S(=O)(=O)CCCS2(=O)=O)cc1OC", "Ki": "1440 nM and 416 nM"}, {"molecule": "CC(Cc1ccccc1)NCCC(c1ccccc1)c1ccccc1", "note": "(centres undefined)", "Ki": "384 nM and 320 nM"}, {"molecule": "COc1ccc(CCN(C)CCCC(C#N)(c2cc(OC)c(OC)c(OC)c2)C(C)C)cc1OC", "note": "(centres undefined) [GALLOPAMIL]", "Ki": "21.4 nM and 22.5 nM"}, {"molecule": "COC(=O)C1=C(C)N=C(C)C([N+](=O)[O-])C1c1ccccc1C(F)(F)F", "note": "(centres undefined) [Bay k 8644]", "Ki": "1110 nM"}, {"molecule": "CCOC(=O)C1=C(C)N=C(C)C(C(=O)OCC)C1c1ccccc1C(F)(F)F", "note": "(centres undefined) [NSC_168089]", "Ki": "268 nM"}, {"molecule": "CN(C)C(=O)C(CCN1CCC(O)(c2ccc(Cl)cc2)CC1)(c1ccccc1)c1ccccc1", "Ki": "205 nM and 127 nM"}, {"molecule": "CC(C)COC[C@H](CN(Cc1ccccc1)c1ccccc1)N1CCCC1", "Ki": "547 nM and 241 nM"}, {"molecule": "Cc1cccc(C)c1NC(=O)CN1CCN(CCCC(c2ccc(F)cc2)c2ccc(F)cc2)CC1", "Ki": "305 nM and 188 nM"}, {"molecule": "CCOP(=O)(Cc1ccc(-c2nc3ccccc3s2)cc1)OCC", "note": "[NSC_53421]", "Ki": "1690 nM and 442 nM"}]}]}
